Source: US11883444B2, “Inhibition of enteric infection through the modulation of microbiota” (priority 2017, dated 2024)

Columns and labels:
Assay type in all cases: in vivo
[1] = system: Clostridium cluster IV and XIVa; assay: Intestinal colonization of Clostridia in GF mice, qPCR of fecal DNA; conditions: metabolite in drinking water of GF mice gavaged with Clostridia consortium; FIG. 4D, 9C
C. rodentium = C. rodentium oral infection of mice: pathogen loads in feces; conditions: adult mice, vancomycin in drinking water; day 25-30 after infection; FIG. 2B
Procedure: (§1) Reconstitution of GF mice with cecal contents and defined bacteria. Cecal contents from single neonatal and 7-week old SPF mice were diluted into 50 ml (per one adult mouse) or 5 ml (per one 4, 12, 16-day old mouse) of PBS, and passed through a 70 μm cell strainer to eliminate clumps and debris under sterile conditions) under an atmosphere of 5% H2, 5% CO2 and 90% N2 in an anaerobic growth chamber (Coy Manufacturing, Grass Lake, MI). Then 200 μl of the suspension was processed by intragastric gavage into each of the recipient GF mice. Bacteroides species were anaerobically grown at 37° C. overnight in pre-reduced chopped-meat broth (Anaerobe systems, Morgan Hill, CA). E. coli were grown aerobically overnight in LB broth with shaking.
(§2) Enteric pathogen infection. Kanamycin (Km)-resistant and Streptomycin (Sm)-resistant Salmonella enterica serovar Typhimurium (S. Typhimurium) SL1344 ΔspiA was a gift from Dr. Denise Monack, Stanford University. Kanamycin (Km)-resistant wild-type Citrobacter rodentium strain DBS120 (pCRP1::Tn5) was a gift from Dr. David Schauer, Massachusetts Institute of Technology. […] Mice were infected by oral gavage with 0.2 ml of PBS containing approximately 5×10^7 CFU of S. Typhimurium, and 1×10^9 CFU of C. rodentium. […] Mouse survival was monitored for 7 days after infection. […]

S. Typhimurium ΔspiA = S. Typhimurium ΔspiA oral infection of mice: pathogen loads, cecal histology, survival
Procedure: as §1, §2

fecal microbiota = assay: 16S rRNA gene analysis of the fecal microbiota; conditions: adult mice; FIG. 7, FIG. 2D
Procedure: Fecal pellet DNA extraction and 16S rRNA gene sequencing and sequence curation. Fecal samples were freshly collected and DNA was extracted using the E.Z.N.A® stool DNA kit. Amplicons were generated of the V4 region within the 16S rRNA gene and the fragments were sequenced using an Illumina MiSeq (14). These sequences were curated using Mothur (v.1.35) (14, 15) and sequences were binned into operational taxonomic units (OTUs). Taxonomic assignments were determined using a naive Bayesian classifier with the Ribosomal Database Project (RDP) training set (version 10) requiring an 80% bootstrap confidence score (16). Treatment with vancomycin and SCFAs and special diet. Vancomycin (250 mg/L) was administered in the mouse drinking water for 7 days before S. Typhimurium and C. rodentium infection and the treatment was kept during the length of the experiment.

SMILES | enhanced colonization of Clostridia of IV and XIVa clusters [1] | higher C. rodentium pathogen loads in the feces vs untreated mice (C. rodentium) [logs] | increase of S. Typhimurium colonization in fecal and cecal contents (S. Typhimurium ΔspiA; adult mice, vancomycin in drinking water, day 1 after infection, FIG. 2C) [logs] | change of fecal microbiota composition (fecal microbiota) | reduction of intestinal loads of S. Typhimurium ΔspiA (S. Typhimurium ΔspiA; GF mice given succinate in drinking water and Clostridia consortium by gavage, FIG. 4E, F) [fold]
CC(=O)O [acetate] | not |  |  |  | 
CN[C@H](CC(C)C)C(=O)N[C@H]1C(=O)N[C@@H](CC(N)=O)C(=O)N[C@H]2C(=O)N[C@H]3C(=O)N[C@H](C(=O)N[C@H](C(=O)O)c4cc(O)cc(O)c4-c4cc3ccc4O)[C@H](O)c3ccc(c(Cl)c3)Oc3cc2cc(c3O[C@@H]2O[C@H](CO)[C@@H](O)[C@H](O)[C@H]2O[C@H]2C[C@](C)(N)[C@H](O)[C@H](C)O2)Oc2ccc(cc2Cl)[C@H]1O [vancomycin] |  | ~6 | 4 to 5 | depleted the microbiota of Clostridiales and Bacteroidales and increased the abundance of Enterobacteriaceae and Lactobacillaceae | 
O=C(O)CCC(=O)O [succinate] | 4 to 5 logs |  |  |  | ~100
CC(O)C(=O)O (stereo not shown) [lactate] | not |  |  |  | 
